The values that follow come from patent publication US11691972B2, “Compounds for targeted degradation of BRD9” (C4 Therapeutics, Inc., priority 2020, dated 2023).

The target in one assay is T1, BRD9 (Homo sapiens, UniProt Q9H8M2).
T1 sequence (Q9H8M2 1-597): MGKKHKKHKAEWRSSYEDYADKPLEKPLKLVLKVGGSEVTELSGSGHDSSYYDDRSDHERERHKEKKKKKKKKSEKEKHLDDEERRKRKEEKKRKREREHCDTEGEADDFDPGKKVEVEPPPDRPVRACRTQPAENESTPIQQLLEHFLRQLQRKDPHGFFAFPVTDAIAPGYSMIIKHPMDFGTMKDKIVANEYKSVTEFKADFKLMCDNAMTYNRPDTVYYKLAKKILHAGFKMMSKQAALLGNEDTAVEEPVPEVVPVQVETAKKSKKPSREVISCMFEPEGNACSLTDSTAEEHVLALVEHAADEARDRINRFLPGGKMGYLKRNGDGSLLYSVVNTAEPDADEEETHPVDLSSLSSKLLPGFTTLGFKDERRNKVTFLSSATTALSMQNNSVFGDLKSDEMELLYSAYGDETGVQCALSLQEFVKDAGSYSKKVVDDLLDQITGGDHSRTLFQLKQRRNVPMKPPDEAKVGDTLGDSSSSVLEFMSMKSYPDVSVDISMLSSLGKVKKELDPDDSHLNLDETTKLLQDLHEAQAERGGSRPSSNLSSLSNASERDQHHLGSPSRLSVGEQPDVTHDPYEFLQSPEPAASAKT
In words: HiBiT BRD9 degradation assay in 293T.166 (BRD9-HiBiT) cells. The arrangement: endogenously expressing BRD9 with HiBiT fusion tag via CRISPR; host or cells: 293T.166 (BRD9-HiBiT), also expressing LgBiT ectopically. Particulars: Table 1; 293T.166 cells, 2.0 hours; class symbols; read-out: HiBiT-Degradation 293T.166 BRD9 2.0 hours (DC50). In kind it is cell-based. The procedure:
Selected compounds were tested in a BRD9 degradation assay using the HiBit Method.
Dulbecco's modified Eagle medium (DMEM) without phenol red and fetal bovine serum (FBS) were purchased from Gibco (Grand Island, N.Y., USA). Nano-Glo® HiBiT Lytic Assay System was purchased from Promega (Madison, Wis., USA). 293T.166 (BRD9-HiBiT) cell line, endogenously expressing BRD9 with HiBiT fusion tag via CRISPR and ectopically expressing LgBiT tag, was purchased from Promega (Madison, Wis., USA). 293T.167 (BRD7-HiBiT) cell line, endogenously expressing BRD7 with HiBiT fusion tag via CRISPR and ectopically expressing LgBiT tag, was purchased from Promega (Madison, Wis., USA). 293T.92 (BRD4-HiBiT) cell line, endogenously expressing BRD4 with HiBiT fusion tag via CRISPR and ectopically expressing LgBiT tag, was generated in-house. Cell culture flasks and 384-well microplates were acquired from VWR (Radnor, Pa., USA).
BRD9 degradation was determined based on quantification of luminescent signal using Nano-Glo® HiBiT Lytic Assay kit. Test compounds were added to the 384-well plate from a top concentration of 10 μM with 11 points, half log titration in duplicates. 293T.166 cells were added into 384-well plates at a cell density of 10,000 cells per well. The plates were kept at 37° C. with 5% CO2 for 2 hours. BRD7 and BRD4 degradation was similarly determined with 293T.167 cells and 293T.92 cells, respectively. The cells treated in the absence of the test compound were the negative control and the cells without Nano-Glo® HiBiT Lytic reagent were the positive control. After 2-hour incubation, Nano-Glo® HiBiT Lytic Assay reagents were added to the cells. Luminescence was acquired on EnVision™ Multilabel Reader (PerkinElmer, Santa Clara, Calif., USA).
(With HiBiT, luminescence reflects the tagged protein that the partner subunit can reach.)
As to `COc1cc(-c2cn(C)c(=O)c3[nH]ncc23)cc(OC)c1CN1CCN(C(=O)CN2CCC(c3ccc(OC4CCC(=O)NC4=O)cc3)CC2)CC1` (stereo not drawn) [Compound 21], the half-maximal degradation concentration (DC50) (as a rule, the concentration at which degradation of the target reaches its halfway point) was below 100 nM.

On to `COc1cc(-c2cn(C)c(=O)c3[nH]ncc23)cc(OC)c1C(=O)N1CCN(C(=O)CN2CCC(c3ccc(NC4CCC(=O)NC4=O)cc3)CC2)CC1` (stereo not drawn) [Compound 46, 3-[4-[1-[2-[4-[2,6-dimethoxy-4-(6-methyl-7-oxo-1H-pyrazolo[3,4-c]pyridin-4-yl)benzoyl]piperazin-1-yl]-2-oxo-ethyl]-4-piperidyl]anilino]piperidine-2,6-dione], for which the half-maximal degradation concentration (DC50) was below 100 nM.

Regarding `CN(C(=O)N1CCC(c2ccc(NC3CCC(=O)NC3=O)cc2)CC1)C1CCN(C(=O)c2ccc(-c3cn(C)c(=O)c4cc(F)ccc34)cc2OC(F)(F)F)CC1` (stereo not drawn) [Compound 131], the DC50 was below 100 nM.

Consider `COc1cc(-c2cn(C)c(=O)c3[nH]ncc23)cc(OC)c1CC1CCN(C(=O)CC2CCN(c3ccc(NC4CCC(=O)NC4=O)cc3)CC2)CC1` (stereo not drawn) [Compound 159], for which the DC50 was below 100 nM.

With `COc1cc(-c2cn(C)c(=O)c(C)c2C)cc(Cl)c1C(=O)N1CCC(N2CCC(c3ccc(NC4CCC(=O)NC4=O)cc3)C(F)(F)C2)CC1` (stereo not drawn) [Compound 229], the DC50 is below 100 nM.

As for `COc1cc(-c2cn(C)c(=O)c3[nH]ncc23)cc(OC)c1CN1C[C@H]2CC(C(=O)N3CCC(c4ccc(NC5CCC(=O)NC5=O)cc4)CC3)C[C@H]2C1` (stereo partly drawn) [Compound 110, 3-[4-[1-[(3aR,6aS)-2-[[2,6-dimethoxy-4-(6-methyl-7-oxo-1H-pyrazolo[3,4-c]pyridin-4-yl)phenyl]methyl]-3,3a,4,5,6,6a-hexahydro-1H-cyclopenta[c]pyrrole-5-carbonyl]-4-piperidyl]anilino]piperidine-2,6-dione], the DC50 is below 100 nM.

Consider `CN(C(=O)N1CCC(c2ccc(NC3CCC(=O)NC3=O)cc2)CC1)C1CCN(C(=O)c2ccc(-c3cn(C)c(=O)c4ccccc34)cc2OC(F)(F)F)CC1` (stereo not drawn) [Compound 127], for which the DC50 was below 100 nM.

For the compound `COc1cc(-c2cn(C)c(=O)c3cnccc23)cc(Cl)c1CN1CCC(N2CCN(c3ccc(OC4CCC(=O)NC4=O)cc3F)CC2)C(F)(F)C1` (stereo not drawn) [Compound 230, 3-[4-[4-[1-[[2-chloro-6-methoxy-4-(2-methyl-1-oxo-2,7-naphthyridin-4-yl)phenyl]methyl]-3,3-difluoro-4-piperidyl]piperazin-1-yl]-3-fluoro-phenoxy]piperidine-2,6-dione], the DC50 was below 100 nM.

For the compound `COc1cc(-c2cn(C)c(=O)c3cnccc23)cc(Cl)c1C(=O)N1CCC(C2CCN(c3ccc(NC4CCC(=O)NC4=O)nc3)CC2)CC1` (stereo not drawn) [Compound 221], the DC50 was below 100 nM.

`COc1cc(-c2cn(C)c(=O)c3cnccc23)cc(Cl)c1CN1CCC(C2CCN(c3ccc(NC4CCC(=O)NC4=O)cc3Cl)CC2)CC1` (stereo not drawn) [Compound 77]: the DC50 is below 100 nM.

As to `COc1cc(-c2cn(C)c(=O)c3ccc(F)cc23)cc(OC)c1CN1CCN(C(=O)CN2CCC(c3ccc(NC4CCC(=O)NC4=O)cc3)CC2)CC1` (stereo not drawn) [Compound 27], the DC50 is below 100 nM.

`COc1cc(-c2cn(C)c(=O)c3cnccc23)cc(Cl)c1CN1CCC(F)(CCC2CCN(c3ccc(NC4CCC(=O)NC4=O)cc3F)CC2)CC1` (stereo not drawn) [Compound 152]: the DC50 was below 100 nM.

Regarding `COc1cc(-c2cn(C)c(=O)c3[nH]ncc23)cc(OC)c1CN1CCN(C(=O)CN2CCC(c3ccc(NC4CCC(=O)NC4=O)cc3)C(F)(F)C2)CC1` (stereo not drawn) [Compound 8], the DC50 was below 100 nM.

For `COc1cc(-c2cn(C)c(=O)c3ccccc23)cc(OC)c1C(=O)N1CCC(N(C)C(=O)N2CCC(c3ccc(NC4CCC(=O)NC4=O)cc3)CC2)CC1` (stereo not drawn) [Compound 135], the DC50 was below 100 nM.

On to `COc1cc(-c2cn(C)c(=O)c3[nH]ncc23)cc(OC)c1CN1CCN(CCCC(=O)N2CCC(c3ccc(NC4CCC(=O)NC4=O)cc3)CC2)CC1` (stereo not drawn) [Compound 40], for which the DC50 is below 100 nM.

For `COc1cc(-c2cn(C)c(=O)c(C)c2C)cc(F)c1CN1CCC(N2CCN(c3ccc(NC4CCC(=O)NC4=O)cc3F)CC2)C(F)(F)C1` (stereo not drawn) [Compound 191], the DC50 was below 100 nM.

Regarding `COc1cc(-c2cn(C)c(=O)c3[nH]ncc23)cc(OC)c1CN1C[C@@H]2C[C@H]1CN2C(=O)CN1CCC(c2ccc(NC3CCC(=O)NC3=O)cc2)CC1` (stereo partly drawn) [Compound 13], the DC50 was below 100 nM.

For the compound `COc1cc(-c2cn(C)c(=O)c3cnccc23)cc(Cl)c1CN1CCC(N2CCN(c3ccc(NC4CCC(=O)NC4=O)cc3F)CC2)C(F)(F)C1` (single isomer, unassigned) [Compound 178, 3-[4-[4-[1-[[2-chloro-6-methoxy-4-(2-methyl-1-oxo-2,7-naphthyridin-4-yl)phenyl]methyl]-3,3-difluoro-4-piperidyl]piperazin-1-yl]-3-fluoro-anilino]piperidine-2,6-dione], the DC50 is below 100 nM.

Turning to `COc1cc(-c2cn(C)c(=O)c(C)c2C)cc(F)c1CN1CCC(C2CCN(c3ccc(NC4CCC(=O)NC4=O)cc3C(F)(F)F)CC2)CC1` (stereo not drawn) [Compound 86], the DC50 is below 100 nM.

Consider `Cc1c(-c2ccc(C(=O)N3CCC(N4CCN(c5ccc(NC6CCC(=O)NC6=O)cc5F)CC4)C(F)(F)C3)c(OC(F)(F)F)c2)cn(C)c(=O)c1C` (stereo not drawn) [Compound 223], for which the DC50 is below 100 nM.

As to `COc1cc(-c2cn(C)c(=O)c3[nH]ncc23)cc(OC)c1CN1CCN(C(=O)CC2CCN(c3ccc(NC4CCC(=O)NC4=O)cc3Cl)CC2)CC1` (stereo not drawn) [Compound 67], the DC50 was below 100 nM.

For `COc1cc(-c2cn(C)c(=O)c(C)c2C)cc(Cl)c1C=C1CCN(C(=O)CC2CCN(c3ccc(NC4CCC(=O)NC4=O)cc3F)CC2)CC1` (stereo not drawn) [Compound 163], the DC50 is below 100 nM.

For `COc1cc(-c2cn(C)c(=O)c3[nH]ncc23)cc(OC)c1CN1CCN(C(=O)CN2CCC(c3c(F)cc(NC4CCC(=O)NC4=O)cc3F)CC2)CC1` (stereo not drawn) [Compound 17], the 50% degradation concentration (DC50) was below 100 nM.

As for `Cn1cc(-c2ccc(CN3CCC(C4CCN(c5ccc(NC6CCC(=O)NC6=O)cc5F)CC4)CC3)c(OC(F)(F)F)c2)c2ccncc2c1=O` (stereo not drawn) [Compound 79], the DC50 is below 100 nM.

Consider `COc1cc(-c2cn(C)c(=O)c3[nH]ncc23)cc(OC)c1CNC1CCN(CC(=O)N2CCC(c3ccc(NC4CCC(=O)NC4=O)cc3)CC2)CC1` (stereo not drawn) [Compound 39], for which the DC50 is below 100 nM.

Staying with this assay, now noted: Table 2; 293T.166 cells, 2.0 hours; class symbols; read-out: HiBiT-Degradation 293T.166 BRD9 2.0 hours (DC50).
Turning to `COc1cc(-c2cn(C)c(=O)c(C)c2C)cc(Cl)c1CN1CCc2c(CC3CCN(c4ccc(NC5CCC(=O)NC5=O)cc4F)CC3)cccc2C1` (single isomer, unassigned) [Compound 250], the DC50 is below 100 nM.

For the compound `COc1cc(-c2cn(C)c(=O)c(C)c2C)cc(Cl)c1CN1CCC(C2CCN(c3ccc(NC4CCC(=O)NC4=O)nc3)CC2)C(F)(F)C1` (stereo not drawn) [Compound 273], the DC50 was below 100 nM.

In the case of `COc1cc(-c2cn(C)c(=O)c3cnccc23)c(Cl)cc1CN1CCC(N2CCN(c3ccc(NC4CCC(=O)NC4=O)cc3F)CC2)C(F)(F)C1` (stereo not drawn) [Compound 255], the half-maximal degradation concentration (DC50) is below 100 nM.

Take `COc1cc(-c2cn(C)c(=O)c(C)c2C)cc(Cl)c1CN1CCC(C2CCN(c3ccc(NC4CCC(=O)NC4=O)cc3F)CC2)C(F)(F)C1` (single isomer, unassigned) [Compound 256]: the DC50 was below 100 nM.

Take `C/C=C/Cn1cc(-c2cc(OC)c(CN3CCC(N4CCN(c5ccc(NC6CCC(=O)NC6=O)cc5F)CC4)C(F)(F)C3)c(OC)c2)c(C)c(C)c1=O` (stereo not drawn) [Compound 265, 3-[4-[4-[1-[[4-[1-[(E)-but-2-enyl]-4,5-dimethyl-6-oxo-3-pyridyl]-2,6-dimethoxy-phenyl]methyl]-3,3-difluoro-4-piperidyl]piperazin-1-yl]-3-fluoro-anilino]piperidine-2,6-dione]: the DC50 is below 100 nM.
